# Target: human μ opiate receptor (Homo sapiens, UniProt P35372)
# Assay: μ binding, displacement of [3H]-naloxone
# Conditions: CHO-K1 membranes expressing human μ opiate receptor; Cheng-Prusoff
# Sequence of human μ opiate receptor (P35372 whole entry): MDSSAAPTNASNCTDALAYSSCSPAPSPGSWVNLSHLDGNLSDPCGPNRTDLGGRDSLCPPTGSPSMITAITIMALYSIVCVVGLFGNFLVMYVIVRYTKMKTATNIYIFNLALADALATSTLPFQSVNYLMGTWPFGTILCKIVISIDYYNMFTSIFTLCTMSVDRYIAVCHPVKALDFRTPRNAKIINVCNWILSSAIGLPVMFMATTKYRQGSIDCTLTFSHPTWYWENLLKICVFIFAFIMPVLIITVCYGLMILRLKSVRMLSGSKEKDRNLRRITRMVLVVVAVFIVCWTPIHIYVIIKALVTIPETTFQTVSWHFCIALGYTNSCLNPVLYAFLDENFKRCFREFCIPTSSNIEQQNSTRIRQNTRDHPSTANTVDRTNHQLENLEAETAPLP
smiles,measurement,value
"CN(C)C1(Cc2ccccc2)CC=C(c2cc3ccccc3n2C)CC1 (stereo not shown) [Example 302, [1-Benzyl-4-(1-methyl-1H-indol-2-yl)cyclohex-3-enyl]dimethylamine]",Ki,0.103 µM
